From BindingDB's records for doi:10.1016/j.bmc.2006.12.026 (University of North Carolina At Chapel Hill, 2007)
pEC50, pIC50: −log10 of the molar value.

Target: T1, Nuclear receptor subfamily 1 group I member 2 (Homo sapiens, UniProt O75469)
T1 sequence (O75469 whole entry): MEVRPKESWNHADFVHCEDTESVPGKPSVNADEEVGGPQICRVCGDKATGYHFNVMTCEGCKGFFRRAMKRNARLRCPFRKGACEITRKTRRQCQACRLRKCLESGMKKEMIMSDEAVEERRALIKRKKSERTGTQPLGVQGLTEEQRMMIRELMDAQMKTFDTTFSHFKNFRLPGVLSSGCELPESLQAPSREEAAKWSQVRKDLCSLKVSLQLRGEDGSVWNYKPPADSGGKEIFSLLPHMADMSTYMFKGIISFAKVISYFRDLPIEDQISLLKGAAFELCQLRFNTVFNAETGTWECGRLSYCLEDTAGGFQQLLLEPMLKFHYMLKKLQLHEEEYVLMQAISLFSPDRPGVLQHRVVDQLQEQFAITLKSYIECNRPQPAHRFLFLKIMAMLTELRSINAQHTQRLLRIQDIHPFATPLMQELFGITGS
Assay: Competition Ligand Binding Assay and Transient Transfection Assay
Settings: pH 8; 22 °C
Description: Polylysine YiO imaging beads (Amersham, GE Healthcare) were coated with histidine-tagged WT PXR LBD. Nonspecific binding sites were blocked with BSA. [N-Methyl-3H]-GW0438X was added to the blocked receptor-bead. The receptor-bead-radioligand mix was added directly to test compounds in 384-well plates. […] Nonspecific binding was determined in the presence of 10 uM GW0438. Data analysis was achieved using a three-parameter fit. The data were calculated as pIC50s. The pEC50 values were obtained from measurement of Luciferase reporter activity in CV-1 cells transfected with full-length hPXR.

**Q.** `CCC(O)(c1ccc(N(CC(F)(F)F)S(=O)(=O)c2ccccc2)cc1)C(F)(F)F` (stereo not drawn) [N-[4-(1,1,1-trifluoro-2-hydroxybutan-2-yl)phenyl]-N-(2,2,2-trifluoroethyl)benzenesulfonamide] was tested. Which pEC50 did it give?
**A.** 6.90

**Q.** And the pIC50?
**A.** 6.60

**Q.** `O=S(=O)(c1ccccc1)N(CC(F)(F)F)c1ccc(C(O)(C2CCCCC2)C(F)(F)F)cc1` (stereo not drawn) [N-[4-(1-cyclohexyl-2,2,2-trifluoro-1-hydroxyethyl)phenyl]-N-(2,2,2-trifluoroethyl)benzenesulfonamide] was tested. Which pEC50 did it give?
**A.** 8.52
